Experiments:
S. pneumoniae D39V [1] = assay: Bliss interaction score (quartile over a dose matrix) (fitness difference); higher = more antagonism (negative = synergy)
Method in brief: (§1)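 Fitness was defined as normalised growth: OD595 at the start of stationary phase divided by the plate's robust no-drug mean and capped at 1. Single-drug fitness was inferred from combination measurements. The Bliss score is observed fitness minus the product of the single-drug values, summarised by quartiles across technical, biological and donor/recipient replicates.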

S. aureus DSM 20231 [2] = assay: as above
Method in brief: as §1

B. subtilis 168 [3] = assay: as above
Method in brief: as §1

S. aureus Newman [4] = assay: as above
Method in brief: as §1

S. pneumoniae D39V [5] = assay: fitness (endpoint OD595 vs no drug) (fraction); higher = more growth
Method in brief: (§2)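 Bacterial fitness was scored as optical density at the stationary-phase transition relative to the robust mean of no-drug control wells. Scores are capped at 1. The growth data were OD595 readings every 30 min for 14 h at 37 °C, background-subtracted against the first reading, from 384-well plates inoculated at OD595 0.01 in TSB, LB Lennox or CY.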

S. aureus DSM 20231 [6] = assay: as above
Method in brief: as §2

B. subtilis 168 [7] = assay: as above
Method in brief: as §2

S. aureus Newman [8] = assay: as above
Method in brief: as §2
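Throughout, for Bliss interaction score (quartile over a dose matrix): first quartile when negative (synergy) and third quartile when positive (antagonism).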
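Throughout, for fitness (endpoint OD595 vs no drug): OD595 on entry to stationary phase over no-drug wells; at most 1.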

CCC[C@@H]1C[C@@H](C(=O)N[C@@H]([C@H]2O[C@H](SC)[C@H](O)[C@@H](O)[C@H]2O)[C@H](C)Cl)N(C)C1 [Clindamycin] + COc1ccc(C[C@H](N)C(=O)N[C@H]2[C@@H](O)[C@H](n3cnc4c(N(C)C)ncnc43)O[C@@H]2CO)cc1 [Puromycin]
Details | Bliss interaction score
B. subtilis 168 [3] | 0.0463
S. aureus DSM 20231 [2] | -0.0327
S. aureus Newman [4] | -0.0646
S. pneumoniae D39V [1] | -0.123

Details | fitness
B. subtilis 168 [7], first compound 0.0625 µg/mL, partner 0.39 µg/mL | 0.534
B. subtilis 168 [7], first compound 0.0625 µg/mL, partner 0.78 µg/mL | 0.52
B. subtilis 168 [7], first compound 0.0625 µg/mL, partner 1.56 µg/mL | 0.564
B. subtilis 168 [7], first compound 0.125 µg/mL, partner 0.39 µg/mL | 0.378
B. subtilis 168 [7], first compound 0.125 µg/mL, partner 0.78 µg/mL | 0.355
B. subtilis 168 [7], first compound 0.125 µg/mL, partner 1.56 µg/mL | 0.366
B. subtilis 168 [7], first compound 0.25 µg/mL, partner 0.39 µg/mL | 0.347
B. subtilis 168 [7], first compound 0.25 µg/mL, partner 0.78 µg/mL | 0.335
B. subtilis 168 [7], first compound 0.25 µg/mL, partner 1.56 µg/mL | 0.344
S. aureus DSM 20231 [6], first compound 0.0625 µg/mL, partner 1.56 µg/mL | 0.179
S. aureus DSM 20231 [6], first compound 0.125 µg/mL, partner 0.39 µg/mL | 0.0343
S. aureus DSM 20231 [6], first compound 0.125 µg/mL, partner 0.78 µg/mL | 0.0367
S. aureus DSM 20231 [6], first compound 0.125 µg/mL, partner 1.56 µg/mL | 0.0565
S. aureus Newman [8], first compound 0.0312 µg/mL, partner 0.39 µg/mL | 0.741
S. aureus Newman [8], first compound 0.0312 µg/mL, partner 0.78 µg/mL | 0.717
S. aureus Newman [8], first compound 0.0312 µg/mL, partner 1.56 µg/mL | 0.713
S. aureus Newman [8], first compound 0.0625 µg/mL, partner 0.39 µg/mL | 0.395
S. aureus Newman [8], first compound 0.0625 µg/mL, partner 0.78 µg/mL | 0.412
S. aureus Newman [8], first compound 0.0625 µg/mL, partner 1.56 µg/mL | 0.326
S. aureus Newman [8], first compound 0.125 µg/mL, partner 0.39 µg/mL | 0.101
S. aureus Newman [8], first compound 0.125 µg/mL, partner 0.78 µg/mL | 0.115
S. aureus Newman [8], first compound 0.125 µg/mL, partner 1.56 µg/mL | 0.13
S. pneumoniae D39V [5], first compound 0.0125 µg/mL, partner 1 µg/mL | 0.766
S. pneumoniae D39V [5], first compound 0.0125 µg/mL, partner 2 µg/mL | 0.712
S. pneumoniae D39V [5], first compound 0.0125 µg/mL, partner 4 µg/mL | 0.473
S. pneumoniae D39V [5], first compound 0.025 µg/mL, partner 1 µg/mL | 0.533
S. pneumoniae D39V [5], first compound 0.025 µg/mL, partner 2 µg/mL | 0.475
S. pneumoniae D39V [5], first compound 0.025 µg/mL, partner 4 µg/mL | 0.33
S. pneumoniae D39V [5], first compound 0.05 µg/mL, partner 1 µg/mL | 0.261
S. pneumoniae D39V [5], first compound 0.05 µg/mL, partner 2 µg/mL | 0.192
S. pneumoniae D39V [5], first compound 0.05 µg/mL, partner 4 µg/mL | 0.11

one replicate
Details | fitness
B. subtilis 168 [7], first compound 0.0039 µg/mL, partner 0.39 µg/mL | 0.956
B. subtilis 168 [7], first compound 0.0039 µg/mL, partner 0.78 µg/mL | 0.946
B. subtilis 168 [7], first compound 0.0039 µg/mL, partner 1.56 µg/mL | ≥ 1
B. subtilis 168 [7], first compound 0.0078 µg/mL, partner 0.39 µg/mL | 0.853
B. subtilis 168 [7], first compound 0.0078 µg/mL, partner 0.78 µg/mL | 0.876
B. subtilis 168 [7], first compound 0.0078 µg/mL, partner 1.56 µg/mL | 0.92
B. subtilis 168 [7], first compound 0.0156 µg/mL, partner 0.39 µg/mL | 0.826
B. subtilis 168 [7], first compound 0.0156 µg/mL, partner 0.78 µg/mL | 0.907
B. subtilis 168 [7], first compound 0.0156 µg/mL, partner 1.56 µg/mL | 0.894
S. aureus DSM 20231 [6], first compound 0.0312 µg/mL, partner 3.12 µg/mL | 0.487
S. aureus DSM 20231 [6], first compound 0.0312 µg/mL, partner 6.24 µg/mL | 0.14
S. aureus DSM 20231 [6], first compound 0.0625 µg/mL, partner 3.12 µg/mL | 0.212
S. aureus DSM 20231 [6], first compound 0.0625 µg/mL, partner 6.24 µg/mL | 0.0867
S. aureus DSM 20231 [6], first compound 0.125 µg/mL, partner 3.12 µg/mL | 0.0522
S. aureus DSM 20231 [6], first compound 0.125 µg/mL, partner 6.24 µg/mL | 0.0492
S. pneumoniae D39V [5], first compound 0.015 µg/mL, partner 1 µg/mL | 0.746
S. pneumoniae D39V [5], first compound 0.015 µg/mL, partner 2 µg/mL | 0.84
S. pneumoniae D39V [5], first compound 0.015 µg/mL, partner 4 µg/mL | 0.583
S. pneumoniae D39V [5], first compound 0.03 µg/mL, partner 1 µg/mL | 0.591
S. pneumoniae D39V [5], first compound 0.03 µg/mL, partner 2 µg/mL | 0.625
S. pneumoniae D39V [5], first compound 0.03 µg/mL, partner 4 µg/mL | 0.218
S. pneumoniae D39V [5], first compound 0.06 µg/mL, partner 1 µg/mL | 0.177
S. pneumoniae D39V [5], first compound 0.06 µg/mL, partner 2 µg/mL | 0.102
S. pneumoniae D39V [5], first compound 0.06 µg/mL, partner 4 µg/mL | 0.114

CCC[C@@H]1C[C@@H](C(=O)N[C@@H]([C@H]2O[C@H](SC)[C@H](O)[C@@H](O)[C@H]2O)[C@H](C)Cl)N(C)C1 [Clindamycin] + COc1cccc2c1C(=O)c1c(O)c3c(c(O)c1C2=O)C[C@@](O)(C(=O)CO)C[C@@H]3O[C@H]1C[C@H](N)[C@H](O)[C@H](C)O1 [Doxorubicin]
Details | Bliss interaction score
B. subtilis 168 [3] | 0.0474
S. aureus DSM 20231 [2] | 0.075
S. aureus Newman [4] | 0.168
S. pneumoniae D39V [1] | -0.0723

fitness
Details | partner 0.25 µg/mL | partner 0.5 µg/mL | partner 0.625 µg/mL | partner 1 µg/mL | partner 1.25 µg/mL | partner 2.5 µg/mL
B. subtilis 168 [7], first compound 0.0625 µg/mL | – | – | 0.496 | – | 0.482 | 0.394
B. subtilis 168 [7], first compound 0.125 µg/mL | – | – | 0.363 | – | 0.408 | 0.3
B. subtilis 168 [7], first compound 0.25 µg/mL | – | – | 0.347 | – | 0.364 | 0.214
S. aureus DSM 20231 [6], first compound 0.125 µg/mL | – | – | 0.0581 | – | 0.0433 | 0.0502
S. aureus Newman [8], first compound 0.0312 µg/mL | – | – | 0.641 | – | 0.684 | 0.666
S. aureus Newman [8], first compound 0.125 µg/mL | – | – | 0.202 | – | 0.204 | 0.136
S. pneumoniae D39V [5], first compound 0.0125 µg/mL | 0.671 | 0.697 | – | 0.759 | – | –
S. pneumoniae D39V [5], first compound 0.015 µg/mL | 0.751 | 0.746 | – | 0.649 | – | –
S. pneumoniae D39V [5], first compound 0.025 µg/mL | 0.41 | 0.375 | – | 0.439 | – | –
S. pneumoniae D39V [5], first compound 0.03 µg/mL | 0.588 | 0.576 | – | 0.495 | – | –
S. pneumoniae D39V [5], first compound 0.05 µg/mL | 0.115 | 0.104 | – | 0.131 | – | –
S. pneumoniae D39V [5], first compound 0.06 µg/mL | 0.299 | 0.288 | – | 0.256 | – | –

fitness, B. subtilis 168 [7], one replicate
Details | first compound 0.0039 µg/mL | first compound 0.0078 µg/mL | first compound 0.0156 µg/mL
partner 0.625 µg/mL | 0.952 | 0.832 | 0.818
partner 1.25 µg/mL | ≥ 1 | 0.858 | 0.793
partner 2.5 µg/mL | ≥ 1 | 0.851 | 0.852

Reference: the supplement of paper PMC10627819
